Experimental findings from patent publication US20100183604A1, “PREVENTIVE/REMEDY FOR CANCER” (TAKEDA PHARMACEUTICAL COMPANY LIMITED, priority 2007, published 2010) are described below.

Entries after “also recorded” stand apart in the source; their conditions may differ.

Assay [1] concerns trastuzumab low sensitive BT-474 cells. Description: Viable cell count after HER2 inhibitor addition (no siRNA), low sensitive cell line. The class given is cell-based, human. Conditions: 5 days; for growth suppression: 1 μmol/L, no siRNA; for concentration dependence of growth (proliferation) suppression: range of final concentrations, similar level in both lines. As to the method:
(§1) After culture for 5 days at 37° C., 5% CO2, the number of viable cells was counted.

Assay [2] concerns BT474 cells highly sensitive to trastuzumab. Description: Viable cell count after HER2 inhibitor addition (no siRNA), high sensitive cell line. As to conditions: 5 days; for growth suppression: 1 μmol/L, no siRNA; for concentration dependence of growth (proliferation) suppression: range of final concentrations, similar level in both lines. The assay is classed as cell-based, human. As to the method:
as §1

Regarding `CC(C)(O)CC(=O)NCCn1ccc2ncnc(Nc3ccc(Oc4cccc(C(F)(F)F)c4)c(Cl)c3)c21` [compound A, N-{2-[4-({3-chloro-4-[3-(trifluoromethyl)phenoxy]phenyl}amino)-5H-pyrrolo[3,2-d]pyrimidin-5-yl]ethyl}-3-hydroxy-3-methylbutanamide], the growth suppression result in assay [1] and in assay [2] was “complete suppression of growth” each time. Besides, the “concentration dependence of growth (proliferation) suppression” value (shortened to “concentration dependence of growth”) in assay [1] and in assay [2] was “suppressed in a concentration-dependent manner; also recorded: concentration-dependent growth suppression” in each case.
In the case of `CS(=O)(=O)CCNCc1ccc(-c2ccc3ncnc(Nc4ccc(OCc5cccc(F)c5)c(Cl)c4)c3c2)o1` [lapatinib], in assay [1], the growth suppression result is given as “complete suppression of growth” and the “concentration dependence of growth” value was “suppressed in a concentration-dependent manner; also recorded: concentration-dependent growth suppression”. Further, in assay [2], the growth suppression entry was “complete suppression of growth” and the “concentration dependence of growth” value is “suppressed in a concentration-dependent manner; also recorded: concentration-dependent growth suppression”.
